Test results as given in patent US20260083864A1, “CONTRAST AGENTS FOR USE IN DIAGNOSTIC COMPUTED TOMOGRAPHY IMAGING” (Bayer Aktiengesellschaft, priority 2022, published 2026).

Columns and labels:
[1] = tested on: freshly isolated rat hepatocytes; experiment: Uptake into freshly isolated rat hepatocytes; conditions: for Uptake rat hepatocytes: 100 μmol Gd/L, 10 min, 37° C., relative to RC1 (Gd-EOB-DTPA); for Inhibition Rifampicine: rat hepatocyte uptake, test item and Rifampicine 1:1, each 100 μM
[2] = Relaxivity measurements at 1.41 T in human plasma; type: physicochemical; conditions: 37° C., normalized to Gd
Outline: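 T1 determined by inversion recovery (8 inversion-time steps) and T2 by CPMG sequence, both with relaxation delay ≥5×T1. Each relaxivity used three Gd concentrations between 0.05 and 2 mM. Relaxivities were derived from relaxation rates measured in water and plasma.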

[3] = Water solubility in aqueous buffer; conditions: aqueous buffer 10 mM Tris-HCl, pH 7.4, 20° C.
Procedure: The solid compounds were added stepwise to the buffer solution. More substance is added once all the suspended material is dissolved until an equilibrium between undissolved and dissolved substance is reached. The suspension was mixed using a shaker (Heidolph Reax 2000) and treated 5 min in an ultrasound bath (Bandelin, Sonorex Super RK255H).

OATP1B3 = target: T1, OATP1B3 (Homo sapiens, UniProt Q9NPD5); experiment: Uptake into stable transfected OATP1B3 HEK 293 cells; type: cell-based; conditions: for Inhibition Rifampicine: uptake into OATP1B3-HEK 293 cells; for Uptake into OATP1B3-HEK 293 cells: 40 min incubation, relative to RC1 (Gd-EOB-DTPA)
T1 sequence (Q9NPD5 1-702): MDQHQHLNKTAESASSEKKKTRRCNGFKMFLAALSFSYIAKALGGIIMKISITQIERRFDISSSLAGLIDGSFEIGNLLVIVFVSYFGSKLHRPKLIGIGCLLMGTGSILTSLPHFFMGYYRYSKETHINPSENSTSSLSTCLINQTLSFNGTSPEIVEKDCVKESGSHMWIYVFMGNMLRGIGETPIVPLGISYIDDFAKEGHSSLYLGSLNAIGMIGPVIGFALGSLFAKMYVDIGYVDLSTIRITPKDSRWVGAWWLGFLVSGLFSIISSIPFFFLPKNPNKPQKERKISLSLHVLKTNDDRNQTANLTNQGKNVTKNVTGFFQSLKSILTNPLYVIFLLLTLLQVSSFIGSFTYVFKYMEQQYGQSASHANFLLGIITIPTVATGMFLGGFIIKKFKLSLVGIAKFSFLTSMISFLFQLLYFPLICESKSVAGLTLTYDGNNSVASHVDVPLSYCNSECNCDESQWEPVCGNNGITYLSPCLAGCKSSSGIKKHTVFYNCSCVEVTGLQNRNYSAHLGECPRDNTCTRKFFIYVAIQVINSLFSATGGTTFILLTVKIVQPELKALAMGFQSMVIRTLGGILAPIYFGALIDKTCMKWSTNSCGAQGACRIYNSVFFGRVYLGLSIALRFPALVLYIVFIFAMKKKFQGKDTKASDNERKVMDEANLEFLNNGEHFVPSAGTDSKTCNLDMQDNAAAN
Outline: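 HEK 293 cells stably transfected with human OATP1B3 were incubated for 40 min with test items at 100 μM final in transport buffer, in triplicate, then washed with cold PBS. Gadoxetate (Gd-EOB-DTPA) served as the reference standard on the same plate.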

OATP1B1 = target: T2, OATP1B1 (Homo sapiens, UniProt Q9Y6L6); experiment: Uptake into stable transfected OATP1B1 HEK 293 cells; type: cell-based; conditions: for Inhibition Rifampicine: uptake into OATP1B1-HEK 293 cells; for Uptake into OATP1B1-HEK 293 cells: 40 min incubation, relative to RC1 (Gd-EOB-DTPA)
T2 sequence (Q9Y6L6 1-691): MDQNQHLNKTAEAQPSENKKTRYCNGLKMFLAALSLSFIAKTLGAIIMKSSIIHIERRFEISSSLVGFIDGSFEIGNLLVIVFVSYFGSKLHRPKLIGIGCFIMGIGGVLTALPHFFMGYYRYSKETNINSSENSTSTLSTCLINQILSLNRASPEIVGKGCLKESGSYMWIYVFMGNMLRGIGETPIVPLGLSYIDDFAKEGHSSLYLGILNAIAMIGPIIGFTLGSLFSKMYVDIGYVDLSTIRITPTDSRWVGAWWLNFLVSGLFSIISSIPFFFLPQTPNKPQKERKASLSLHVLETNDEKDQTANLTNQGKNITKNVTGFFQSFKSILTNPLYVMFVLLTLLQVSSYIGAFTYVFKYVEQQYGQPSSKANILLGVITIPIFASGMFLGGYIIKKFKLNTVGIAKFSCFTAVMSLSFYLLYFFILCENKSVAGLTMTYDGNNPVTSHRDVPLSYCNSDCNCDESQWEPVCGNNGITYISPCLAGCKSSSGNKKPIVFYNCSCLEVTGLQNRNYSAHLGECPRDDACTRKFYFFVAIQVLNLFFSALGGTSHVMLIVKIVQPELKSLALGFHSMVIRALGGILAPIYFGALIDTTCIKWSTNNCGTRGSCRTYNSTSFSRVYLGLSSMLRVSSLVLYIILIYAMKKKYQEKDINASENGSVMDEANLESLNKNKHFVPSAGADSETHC
Outline: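 Stably transfected OATP1B1 HEK293 cells incubated 40 min without shaking with test item at 100 µM final in transport buffer, in triplicate. Cells then washed with cold PBS; gadoxetate run on the same plate as reference.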

[4] = Partition coefficient (log P butanol/buffer); type: physicochemical; conditions: 1-butanol / 50 mM Tris-HCl, pH 7.4, room temperature
[5] = Relaxivity measurements at 1.41 T in water; type: physicochemical; conditions: 37° C., normalized to Gd
Outline: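 T1 by inversion recovery and T2 by CPMG at 1.41 T (60 MHz), 37° C, relaxation delay ≥5×T1. Three Gd concentrations between 0.05 and 2 mM; relaxivities derived from measured relaxation rates in water.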

Row | Structure (SMILES) | Uptake rat hepatocytes [1] | Inhibition Rifampicine [1] | r1 human plasma [2] | Solubility [3] | Inhibition Rifampicine (OATP1B3) | Inhibition Rifampicine (OATP1B1) | Log P (partition coefficient butanol/buffer) [4] | r1 water [5] | Uptake into OATP1B3-HEK 293 cells (OATP1B3) | Uptake into OATP1B1-HEK 293 cells (OATP1B1)
1 | CCOCCOCCOc1ccc(CCC[C@@H](C(=O)O)N2CCN([C@H](CO)C(=O)[O-])CCN([C@H](CO)C(=O)[O-])CCN([C@H](CO)C(=O)[O-])CC2)cc1.[Gd+3] [Example 20, gadolinium (2R,2′R,2″R)-2,2′,2″-{10-[(1S)-1-carboxy-4-{4-[2-(2-ethoxyethoxy)ethoxy]phenyl}butyl]-1,4,7,10-tetraazacyclododecane-1,4,7-triyl}tris(3-hydroxypropanoate)] | 71 % of RC1 | 91 % inhibition | 9.8 L/mmol/s | >381 mM | 99 % inhibition | 87 % inhibition | −1.11 | 5.6 L/mmol/s |  | 
2 | CCCCOc1ccc(CC(C(=O)O)N2CCN(CC(=O)[O-])CCN(CC(=O)[O-])CCN(CC(=O)[O-])CC2)cc1.[Gd+3] (stereo not shown) [Example 14, gadolinium 2,2′,2″-{10-[2-(4-butoxyphenyl)-1-carboxyethyl]-1,4,7,10-tetraazacyclododecane-1,4,7-triyl}triacetate] | 96 % of RC1 | 98 % inhibition | 13.3 L/mmol/s | 5 mM | 97 % inhibition | 98 % inhibition | −0.38 | 4.3 L/mmol/s | 69 % of RC1 | 856 % of RC1
3 | CCOCCOCCOc1ccc(CCC[C@H](C(=O)O)N2CCN([C@@H](CO)C(=O)[O-])CCN([C@@H](CO)C(=O)[O-])CCN([C@@H](CO)C(=O)[O-])CC2)cc1.[Gd+3] [Example 18, gadolinium (2S,2'S,2″'S)-2,2′,2″-{10-[(1R)-1-carboxy-4-{4-[2-(2-ethoxyethoxy)ethoxy]phenyl}butyl]-1,4,7,10-tetraazacyclododecane-1,4,7-triyl}tris(3-hydroxypropanoate)] | 75 % of RC1 | 91 % inhibition | 7.7 L/mmol/s | >354 mM | 96 % inhibition | 76 % inhibition | −1.11 | 5.5 L/mmol/s |  | 
4 | CCOCCOCCOCCOc1ccc(CC(C(=O)O)N2CCN(CC(=O)[O-])CCN(CC(=O)[O-])CCN(CC(=O)[O-])CC2)cc1.[Gd+3] (stereo not shown) [Example 10, gadolinium 2,2′,2″-{10-[1-carboxy-2-(4-{2-[2-(2-ethoxyethoxy)ethoxy]ethoxy}phenyl)ethyl]-1,4,7,10-tetraazacyclododecane-1,4,7-triyl}triacetate] | 49 % of RC1 | 90 % inhibition | 6.6 L/mmol/s | >272 mM | 95 % inhibition | 43 % inhibition | −1.70 | 4.5 L/mmol/s | 13 % of RC1 | 87 % of RC1
5 | CCOCCOCCOCCOc1ccc(CC(C(=O)O)N2CCN(CC(=O)[O-])CCN(C(COC)C(=O)[O-])CCN(CC(=O)[O-])CC2)cc1.[Gd+3] (stereo not shown) [Example 13, gadolinium 2-{7-[1-carboxy-2-(4-{2-[2-(2-ethoxyethoxy)ethoxy]ethoxy}phenyl)ethyl]-4,10-bis(carboxylatomethyl)-1,4,7,10-tetraazacyclododecan-1-yl}-3-methoxypropanoate] | 49 % of RC1 | 86 % inhibition | 7.0 L/mmol/s | 67 mM | 93 % inhibition | 30 % inhibition | −1.53 | 5.2 L/mmol/s | 31 % of RC1 | 109 % of RC1
6 | CCOCCOc1ccc(CC(C(=O)O)N2CCN(CC(=O)[O-])CCN(CC(=O)[O-])CCN(CC(=O)[O-])CC2)cc1.[Gd+3] (stereo not shown) [Example 32, gadolinium 2,2′,2″-(10-{1-carboxy-2-[4-(2-ethoxyethoxy)phenyl]ethyl}-1,4,7,10-tetraazacyclododecane-1,4,7-triyl)triacetate] | 54 % of RC1 | 93 % inhibition | 6.6 L/mmol/s | >198 mM | 94 % inhibition | 72 % inhibition | −1.53 | 4.1 L/mmol/s | 22 % of RC1 | 147 % of RC1
7 | CCOCCOCCOc1ccc(CC(C(=O)O)N2CCN(CC(=O)[O-])CCN(C(CO)C(=O)[O-])CCN(CC(=O)[O-])CC2)cc1.[Gd+3] (stereo not shown) [Example 41, gadolinium-2-{7-[1-carboxy-2-{4-[2-(2-ethoxyethoxy)ethoxy]phenyl}ethyl]-4,10-bis(carboxylatomethyl)-1,4,7,10-tetraazacyclododecan-1-yl}-3-hydroxypropanoate] | 52 % of RC1 | 56 % inhibition | 5.7 L/mmol/s | >13 mM | 74 % inhibition | 30 % inhibition | −1.61 | 4.5 L/mmol/s | 47 % of RC1 | 218 % of RC1
8 | CCOCCOCCOCCOc1ccc(CC(C(=O)O)N2CCN(CC(=O)[O-])CCN(C(CO)C(=O)[O-])CCN(CC(=O)[O-])CC2)cc1.[Gd+3] (stereo not shown) [Example 42, gadolinium-2-{7-[1-carboxy-2-(4-{2-[2-(2-ethoxyethoxy)ethoxy]ethoxy}phenyl)ethyl]-4,10-bis(carboxylatomethyl)-1,4,7,10-tetraazacyclododecan-1-yl}-3-hydroxypropanoate] | 44 % of RC1 | 95 % inhibition | 7.2 L/mmol/s | >81 mM | 91 % inhibition | 62 % inhibition | −1.60 | 5.0 L/mmol/s | 20 % of RC1 | 89 % of RC1
